The text below walks through data of patent US12291516B2, “Substituted 1-amino-1H-imidazole-5-carboxamide as Bruton's tyrosine kinase inhibitors” (Henan Zhiwei Biomedicine Co., Ltd., priority 2019, dated 2025).

The assay addresses BTK (Homo sapiens (Human), UniProt Q06187). The experiment in a line: In house ELISA kinase inhibition assay, BTK. It is filed as biochemical. The note with it: footnote b: from in house procedure (ELISA). Here is the method:
BTK inhibition Assay and selectivity Assay The assay was conducted either a by a third party (Reaction Biology Corporation, PA, USA) or in house.
b) In House Procedure for BTK, BMX, EGFR and ITK:
Kinase inhibitory activities of compounds were evaluated using the Enzyme-linked immunosorbent assay (ELISA). The kinase enzyme of BTK, BMX, EGFR and ITK were purchased from Carna Bioscience (Kobe, Japan). A total of 10 ng/mL antiphosphotyrosine (PY713) antibody (abcam, Cambridge Science Park, UK) was precoated in 96-well ELISA plates. The kinase enzymes in each reaction well were set to BTK (101.25 ng/mL), BMX (90 ng/mL), EGFR (90 ng/mL) or ITK (120 ng/mL) and incubated with indicated drugs in 1× reaction buffer (50 mmol/L HEPES pH 7.4, 20 mmol/L MgCl2, 0.1 mmol/L MnCl2, 1 mmol/L DTT) containing 20 μmol/L (the final concentration of substrate in ITK reaction was 30 μmol/L) substrate (NH2-[…]-biotin) at 25° C. for 1 h. Then, a total of 3 μmol/L ATP was added and the reaction was continued for 2 h. The products of reaction were transferred into 96-well ELISA plates containing antibody and incubated at 25° C. for 30 min. After incubation, the wells were washed with PBS and then incubated with horseradish peroxidase (HRP)-conjugated streptavidin. The wells were visualized using 3,3′,5,5′-tetramethylbenzidine (TMB), and chromogenic reaction was ended with 2 mol/L H2SO4, the absorbance was read with a multimode plate reader (PerkinElmer, USA) at 450 nm. IC50 values and curve fits were obtained using Prism (GraphPad Software). (Table I-IV)

Sequence of BTK (Q06187 whole entry): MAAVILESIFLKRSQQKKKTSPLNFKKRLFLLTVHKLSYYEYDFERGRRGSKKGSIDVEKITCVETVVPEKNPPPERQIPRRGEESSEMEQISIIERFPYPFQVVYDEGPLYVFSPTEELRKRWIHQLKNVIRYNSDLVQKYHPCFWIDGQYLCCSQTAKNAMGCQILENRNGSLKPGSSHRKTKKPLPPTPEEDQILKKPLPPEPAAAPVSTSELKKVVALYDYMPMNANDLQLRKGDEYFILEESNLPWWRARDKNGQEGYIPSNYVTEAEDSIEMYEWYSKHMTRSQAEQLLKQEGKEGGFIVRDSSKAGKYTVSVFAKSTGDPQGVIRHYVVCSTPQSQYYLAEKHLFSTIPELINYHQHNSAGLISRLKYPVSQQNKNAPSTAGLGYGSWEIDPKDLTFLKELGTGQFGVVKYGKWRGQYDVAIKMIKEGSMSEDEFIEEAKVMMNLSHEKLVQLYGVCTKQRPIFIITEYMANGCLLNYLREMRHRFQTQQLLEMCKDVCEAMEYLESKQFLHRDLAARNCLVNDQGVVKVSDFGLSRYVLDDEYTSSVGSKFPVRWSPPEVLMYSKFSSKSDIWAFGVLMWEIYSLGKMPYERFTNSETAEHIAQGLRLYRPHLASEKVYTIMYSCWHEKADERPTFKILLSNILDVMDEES

As usually defined, the IC50 is the point on the concentration scale where inhibition reaches its midpoint. A high value points to a need for much substance. The compound `C=CC(=O)N1CCC[C@H]1c1nc(-c2ccc(C(=O)Nc3cc(C)ccn3)cc2)c(C(N)=O)n1N` [Example 10, (S)-2-(1-acryloylpyrrolidin-2-yl)-1-amino-4-(4-((4-methylpyridin-2-yl)carbamoyl)phenyl)-1H-imidazole-5-carboxamide] registered an IC50 of 0.079 µM. For `C=CC(=O)N1CCC[C@H]1c1nc(-c2ccc(C(=O)Nc3ccc(C)cn3)cc2)c(C(N)=O)n1N` [Example 19, (S)-2-(1-acryloylpyrrolidin-2-yl)-1-amino-4-(4-((5-methylpyridin-2-yl)carbamoyl)phenyl)-1H-imidazole-5-carboxamide], the IC50 is 0.212 µM. With `CC#CC(=O)N1CCC[C@H]1c1nc(-c2ccc(C(=O)Nc3ccc(C)cn3)cc2)c(C(N)=O)n1N` [Example 27, (S)-1-amino-2-(1-(but-2-ynoyl)pyrrolidin-2-yl)-4-(4-((5-methylpyridin-2-yl)carbamoyl)phenyl)-1H-imidazole-5-carboxamide] the figure was 2.06 µM; with `C=CC(=O)N1CCC[C@H]1c1nc(-c2ccc(C(=O)Nc3cc(OC)ccn3)cc2)c(C(N)=O)n1N` [Example 28, (S)-2-(1-acryloylpyrrolidin-2-yl)-1-amino-4-(4-((4-methoxypyridin-2-yl)carbamoyl)phenyl)-1H-imidazole-5-carboxamide], 0.0729 µM; with `CC#CC(=O)N1CCC[C@H]1c1nc(-c2ccc(C(=O)Nc3cc(OC)ccn3)cc2)c(C(N)=O)n1N` [Example 34, (S)-1-amino-2-(1-(but-2-ynoyl)pyrrolidin-2-yl)-4-(4-((4-methoxy-pyridin-2-yl)carbamoyl)phenyl)-1H-imidazole-5-carboxamide], 1.67 µM.

`C=CC(=O)N1CCC[C@H]1c1nc(-c2ccc(C(=O)Nc3cc(CC)ccn3)cc2)c(C(N)=O)n1N` [Example 35, (S)-2-(1-acryloylpyrrolidin-2-yl)-1-amino-4-(4-((4-ethylpyridin-2-yl)carbamoyl)phenyl)-1H-imidazole-5-carboxamide] had an IC50 of 0.033 µM. With `CC#CC(=O)N1CCC[C@H]1c1nc(-c2ccc(C(=O)Nc3cc(CC)ccn3)cc2)c(C(N)=O)n1N` [Example 38, (S)-1-amino-2-(1-(but-2-ynoyl)pyrrolidin-2-yl)-4-(4-((4-ethylpyridin-2-yl)carbamoyl)phenyl)-1H-imidazole-5-carboxamide] the figure was 1.04 µM; with `CCc1ccnc(NC(=O)c2ccc(-c3nc([C@@H]4CCCN4C#N)n(N)c3C(N)=O)cc2)c1` [Example 39, (S)-1-amino-2-(1-cyanopyrrolidin-2-yl)-4-(4-((4-ethylpyridin-2-yl)carbamoyl)phenyl)-1H-imidazole-5-carboxamide], 3.85 µM; with `C=CC(=O)N1CCC[C@H]1c1nc(-c2ccc(C(=O)Nc3cc(F)ccn3)cc2)c(C(N)=O)n1N` [Example 40, (S)-2-(1-acryloylpyrrolidin-2-yl)-1-amino-4-(4-((4-fluoropyridin-2-yl)carbamoyl)phenyl)-1H-imidazole-5-carboxamide], 0.0706 µM.

For the compound `CC#CC(=O)N1CCC[C@H]1c1nc(-c2ccc(C(=O)Nc3cc(F)ccn3)cc2)c(C(N)=O)n1N` [Example 41, (S)-1-amino-2-(1-(but-2-ynoyl)pyrrolidin-2-yl)-4-(4-((4-fluoropyridin-2-yl)carbamoyl)phenyl)-1H-imidazole-5-carboxamide], the IC50 was determined as 1.68 µM. With `C=CC(=O)N1CCC[C@H]1c1nc(-c2ccc(C(=O)Nc3cc(C(F)(F)F)ccn3)cc2)c(C(N)=O)n1N` [Example 42, (S)-2-(1-acryloylpyrrolidin-2-yl)-1-amino-4-(4-((4-(trifluoromethyl)pyridin-2-yl)carbamoyl)phenyl)-1H-imidazole-5-carboxamide] the figure was 0.048 µM; with `CC#CC(=O)N1CCC[C@H]1c1nc(-c2ccc(C(=O)Nc3cc(C(F)(F)F)ccn3)cc2)c(C(N)=O)n1N` [Example 43, (S)-1-amino-2-(1-(but-2-ynoyl)pyrrolidin-2-yl)-4-(4-((4-(trifluoro-methyl)pyridin-2-yl)carbamoyl)phenyl)-1H-imidazole-5-carboxamide], 0.577 µM; with `C=CC(=O)N1CCC[C@H]1c1nc(-c2ccc(C(=O)Nc3cc(C(C)C)ccn3)cc2)c(C(N)=O)n1N` [Example 44, (S)-2-(1-acryloylpyrrolidin-2-yl)-1-amino-4-(4-((4-isopropylpyridin-2-yl)carbamoyl)phenyl)-1H-imidazole-5-carboxamide], 0.122 µM. Consider `C=CC(=O)N1CCC[C@H]1c1nc(-c2ccc(C(=O)Nc3cc(C)ccn3)cc2)c(C(N)=O)n1NC` [Example 45, (S)-2-(1-acryloylpyrrolidin-2-yl)-1-(methylamino)-4-(4-((4-methyl-pyridin-2-yl)carbamoyl)phenyl)-1H-imidazole-5-carboxamide], for which inhibition was half-maximal at 0.0582 µM (IC50). Next, `CC#CC(=O)N1CCCC[C@H]1c1nc(-c2ccc(C(=O)Nc3ccccn3)cc2)c(C(N)=O)n1N` [Example 50, (S)-1-amino-2-(1-(but-2-ynoyl)piperidin-2-yl)-4-(4-(pyridin-2-ylcarbamoyl)phenyl)-1H-imidazole-5-carboxamide]: 0.1 µM; `C=CC(=O)N1CCCC[C@H]1c1nc(-c2ccc(C(=O)Nc3cc(C)ccn3)cc2)c(C(N)=O)n1N` [Example 53, (S)-2-(1-acryloylpiperidin-2-yl)-1-amino-4-(4-((4-methylpyridin-2-yl)carbamoyl)phenyl)-1H-imidazole-5-carboxamide]: 0.0181 µM. Next, `CC#CC(=O)N1CCCC[C@H]1c1nc(-c2ccc(C(=O)Nc3cc(C)ccn3)cc2)c(C(N)=O)n1N` [Example 58, (S)-1-amino-2-(1-(but-2-ynoyl)piperidin-2-yl)-4-(4-((4-methylpyridin-2-yl)carbamoyl)phenyl)-1H-imidazole-5-carboxamide]: 0.0581 µM. With `C=C(F)C(=O)N1CCCC[C@H]1c1nc(-c2ccc(C(=O)Nc3cc(C)ccn3)cc2)c(C(N)=O)n1N` [Example 59, (S)-1-amino-2-(1-(2-fluoroacryloyl)piperidin-2-yl)-4-(4-((4-methylpyridin-2-yl)carbamoyl)phenyl)-1H-imidazole-5-carboxamide], the midpoint of inhibition, the IC50, lay at 1.27 µM. With `Cc1ccnc(NC(=O)c2ccc(-c3nc([C@@H]4CCCCN4C(=O)/C=C/C(F)(F)F)n(N)c3C(N)=O)cc2)c1` [Example 60, (S,E)-1-amino-4-(4-((4-methylpyridin-2-yl)carbamoyl)phenyl)-2-(1-(4,4,4-trifluorobut-2-enoyl)piperidin-2-yl)-1H-imidazole-5-carboxamide] the figure was 0.0439 µM; with `C=CC(=O)N1CCCC[C@H]1c1nc(-c2ccc(C(=O)Nc3ccc(C)cn3)cc2)c(C(N)=O)n1N` [Example 61, (S)-2-(1-acryloylpiperidin-2-yl)-1-amino-4-(4-((5-methylpyridin-2-yl)carbamoyl)phenyl)-1H-imidazole-5-carboxamide], 0.0184 µM. For `CC#CC(=O)N1CCCC[C@H]1c1nc(-c2ccc(C(=O)Nc3ccc(C)cn3)cc2)c(C(N)=O)n1N` [Example 64, (S)-1-amino-2-(1-(but-2-ynoyl)piperidin-2-yl)-4-(4-((5-methylpyridin-2-yl)carbamoyl)phenyl)-1H-imidazole-5-carboxamide], the IC50 stood at 0.129 µM.

Turning to `C=CC(=O)N1CCCC[C@H]1c1nc(-c2ccc(C(=O)Nc3cc(-c4ccccc4)ccn3)cc2)c(C(N)=O)n1N` [Example 65, (S)-2-(1-acryloylpiperidin-2-yl)-1-amino-4-(4-((4-phenylpyridin-2-yl)carbamoyl)phenyl)-1H-imidazole-5-carboxamide], the IC50 came out at 0.00506 µM. Next, `CC#CC(=O)N1CCCC[C@H]1c1nc(-c2ccc(C(=O)Nc3cc(-c4ccccc4)ccn3)cc2)c(C(N)=O)n1N` [Example 66, (S)-1-amino-2-(1-(but-2-ynoyl)piperidin-2-yl)-4-(4-((4-phenylpyridin-2-yl)carbamoyl)phenyl)-1H-imidazole-5-carboxamide]: 0.0164 µM; `C=CC(=O)N1CCCC[C@H]1c1nc(-c2ccc(C(=O)Nc3cc(OC)ccn3)cc2)c(C(N)=O)n1N` [Example 67, (S)-2-(1-acryloylpiperidin-2-yl)-1-amino-4-(4-((4-methoxypyridin-2-yl)carbamoyl)phenyl)-1H-imidazole-5-carboxamide]: 0.00912 µM. On to `CC#CC(=O)N1CCCC[C@H]1c1nc(-c2ccc(C(=O)Nc3cc(OC)ccn3)cc2)c(C(N)=O)n1N` [Example 68, (S)-1-amino-2-(1-(but-2-ynoyl)piperidin-2-yl)-4-(4-((4-methoxy-pyridin-2-yl)carbamoyl)phenyl)-1H-imidazole-5-carboxamide], for which the midpoint of inhibition, the IC50, lay at 0.0796 µM. With `COc1ccnc(NC(=O)c2ccc(-c3nc([C@@H]4CCCCN4C(=O)/C=C/C(F)(F)F)n(N)c3C(N)=O)cc2)c1` [Example 69, (S,E)-1-amino-4-(4-((4-methoxypyridin-2-yl)carbamoyl)phenyl)-2-(1-(4,4,4-trifluorobut-2-enoyl)piperidin-2-yl)-1H-imidazole-5-carboxamide] the figure was 0.0707 µM.
